Laboratory results published in ChEMBL document CHEMBL1201862, “PubChem BioAssay data set” (2004).
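Step 1: Grow cells in 96-well plates. Step 2: Expose to compound for 48 hours at 5 concentrations. Step 3: Interpolate endpoints linearly; if unreached, use highest concentration. Abbreviation: GI50, concentration required for 50% inhibition of growth.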 Calls of active or inactive are those of the source. No stated cut-off is given here; in the data, active = GI50 up to about 1.1 µM and inactive = higher.

Experiments:
Assay in all cases: NCI-60 cell line screen, 48 h
[1] = system: KM12
[2] = system: SK-MEL-5
[3] = system: MCF7
[4] = system: A549
[5] = system: SK-OV-3
[6] = system: NCI-H226
[7] = system: SNB-19
[8] = system: HCT-116
[9] = system: HOP-92
[10] = system: CAKI-1
[11] = system: PC-3
[12] = system: SW-620
[13] = system: SK-MEL-2
[14] = system: U-251
[15] = system: HT-29
[16] = system: A498
[17] = system: SN12C
[18] = system: OVCAR-4
[19] = system: LOX IMVI
[20] = system: ACHN

SMILES	GI50 [1]	GI50 [2]	GI50 [3]	GI50 [4]	GI50 [5]	GI50 [6]	GI50 [7]	GI50 [8]	GI50 [9]	GI50 [10]	GI50 [11]	GI50 [12]	GI50 [13]	GI50 [14]	GI50 [15]	GI50 [16]	GI50 [17]	GI50 [18]	GI50 [19]	GI50 [20]
CCOC(=O)c1cc2c([nH]1)c(OC(C)=O)cc1c2ccn1Cc1ccccc1	> 100 µM (inactive)	> 100 µM (inactive)	> 100 µM (inactive)	> 100 µM (inactive)	> 100 µM (inactive)	> 100 µM (inactive)	> 100 µM (inactive)	> 100 µM (inactive)	> 100 µM (inactive)	> 100 µM (inactive)	> 100 µM (inactive)	> 100 µM (inactive)	> 100 µM (inactive)	> 100 µM (inactive)	> 100 µM (inactive)	> 100 µM (inactive)	> 100 µM (inactive)	> 100 µM (inactive)	> 100 µM (inactive)	
N#CCCN(CCN(CCN(C(=O)Nc1ccccc1)c1ccccc1)C(=O)Nc1ccccc1)C(=O)Nc1ccccc1	2.57 µM (inactive)	> 100 µM (inactive)	24.7 µM (inactive)	> 100 µM (inactive)	> 100 µM (inactive)	> 100 µM (inactive)	> 100 µM (inactive)	> 100 µM (inactive)	15.2 µM (inactive)	> 100 µM (inactive)	6.85 µM (inactive)	> 100 µM (inactive)	> 100 µM (inactive)	5.7 µM (inactive)		> 100 µM (inactive)	> 100 µM (inactive)	> 100 µM (inactive)	> 100 µM (inactive)	40.1 µM (inactive)
O=c1c(-c2c(-c3ccccc3)oc3ccc(Cl)cc3c2=O)c(-c2ccccc2)oc2ccc(Cl)cc12	> 100 µM (inactive)	> 100 µM (inactive)	> 100 µM (inactive)		> 51.4 µM (inactive)	> 100 µM (inactive)	> 100 µM (inactive)	> 78.3 µM (inactive)	> 59.7 µM (inactive)	> 100 µM (inactive)	> 100 µM (inactive)	> 100 µM (inactive)	> 100 µM (inactive)	> 100 µM (inactive)	> 100 µM (inactive)	> 100 µM (inactive)	> 100 µM (inactive)	> 100 µM (inactive)	> 82.4 µM (inactive)	> 75.9 µM (inactive)
COC(=O)[C@]1(C)CC[C@]2(C)CC[C@]3(C)C4[C@H]5Oc6c(cc7c(c6C)CCC6[C@@]7(C)CC[C@@]7(C)C8[C@](C)(CCC[C@@]8(C)C(=O)OC)CC[C@]67C)O[C@H]5c5c(cc6c(c5C)O[C@@]5(C)C7=CC=C8[C@@](C)(CC[C@@]9(C)[C@@H]%10C[C@](C)(C(=O)OC)CC[C@]%10(C)CC[C@]89C)C7=CC(=O)[C@@]5(O)O6)[C@]4(C)CC[C@@]3(C)C2C1 (stereo partly drawn)	> 12.5 µM (inactive)	3.69 µM (inactive)	3.11 µM (inactive)	> 12.5 µM (inactive)	> 12.5 µM (inactive)	> 12.5 µM (inactive)	5.05 µM (inactive)	2.34 µM (inactive)	1.92 µM (inactive)	6.22 µM (inactive)	4.15 µM (inactive)	2.53 µM (inactive)	3.01 µM (inactive)	3.66 µM (inactive)	3.66 µM (inactive)	> 12.5 µM (inactive)	2.35 µM (inactive)	7.59 µM (inactive)	2.27 µM (inactive)	3.94 µM (inactive)
CO[C@@H]1C[C@H](OC(N)=O)[C@@H]2C=C[C@@H]3/C=C(C)/C=C/[C@@H](C)[C@H]([C@H](C)[C@H](O)[C@@H](C)NC(C)=O)OC(=O)/C=C/C=C(C)\C=C\[C@]3(C)[C@@H]2C1	< 0.01 µM (active)	< 0.01 µM (active)	< 0.01 µM (active)	< 0.01 µM (active)	< 0.0504 µM (active)	< 0.01 µM (active)	1.5 µM (inactive)	< 0.01 µM (active)	< 0.01 µM (active)	< 0.01 µM (active)	< 0.01 µM (active)	< 0.01 µM (active)	1.28 µM (inactive)	< 0.01 µM (active)	< 0.01 µM (active)	< 0.01 µM (active)		< 0.01 µM (active)	< 0.01 µM (active)	< 0.01 µM (active)
O=C1CSC(c2ccccc2[N+](=O)[O-])N1c1ccc(-c2ccc(-n3c(-c4ccccc4)nc4ccccc4c3=O)cc2)cc1 (stereo not drawn)	80 µM (inactive)	42 µM (inactive)	80.5 µM (inactive)	> 100 µM (inactive)	> 100 µM (inactive)	> 100 µM (inactive)	> 100 µM (inactive)	82.6 µM (inactive)	46.6 µM (inactive)	> 100 µM (inactive)	> 100 µM (inactive)	36.4 µM (inactive)	> 100 µM (inactive)	42.6 µM (inactive)	62.2 µM (inactive)	> 100 µM (inactive)	> 100 µM (inactive)	75.5 µM (inactive)	54 µM (inactive)	> 100 µM (inactive)
CC(=O)OCC1OC(n2c(=O)[nH]c(=O)c3sccc32)C(Br)C1OC(C)=O (stereo not drawn)	> 100 µM (inactive)	> 100 µM (inactive)	> 100 µM (inactive)	> 100 µM (inactive)		> 100 µM (inactive)	> 100 µM (inactive)	> 100 µM (inactive)	> 100 µM (inactive)	> 100 µM (inactive)	> 100 µM (inactive)	> 100 µM (inactive)	> 100 µM (inactive)	> 100 µM (inactive)	> 100 µM (inactive)	> 100 µM (inactive)	> 100 µM (inactive)	> 100 µM (inactive)	> 100 µM (inactive)	> 100 µM (inactive)
C=C(C)C1CCC2(C)C1CCC1(C)C2CCC2C3(C)C4OC(OC4=O)C(C)(C)C3CCC21C (stereo not drawn)	> 100 µM (inactive)	> 100 µM (inactive)	> 100 µM (inactive)	> 100 µM (inactive)	> 100 µM (inactive)	> 100 µM (inactive)	> 100 µM (inactive)	> 100 µM (inactive)	> 100 µM (inactive)	92 µM (inactive)	> 100 µM (inactive)	> 100 µM (inactive)	> 100 µM (inactive)	> 100 µM (inactive)	> 100 µM (inactive)	> 100 µM (inactive)	> 100 µM (inactive)		> 100 µM (inactive)	> 100 µM (inactive)
CC(=O)c1cc2c(s1)C(=O)c1ccsc1C2=O	1.61 µM (inactive)	0.0559 µM (active)	0.293 µM (active)	2.05 µM (inactive)	1.87 µM (inactive)	1.6 µM (inactive)	0.294 µM (active)	0.292 µM (active)	1.56 µM (inactive)	2.12 µM (inactive)	0.458 µM (active)	0.275 µM (active)	0.621 µM (active)	0.233 µM (active)	1.85 µM (inactive)	7.24 µM (inactive)	0.182 µM (active)	1.26 µM (inactive)	0.0414 µM (active)	0.215 µM (active)
COS(C)(=O)=O [METHANESULFONIC ACID METHYL ESTER]	> 2 µM (inactive)		> 2 µM (inactive)	> 2 µM (inactive)	> 2 µM (inactive)	> 2 µM (inactive)	> 2 µM (inactive)	> 2 µM (inactive)	> 2 µM (inactive)	> 2 µM (inactive)	> 2 µM (inactive)	> 2 µM (inactive)	> 2 µM (inactive)	> 2 µM (inactive)	> 2 µM (inactive)	> 2 µM (inactive)	> 2 µM (inactive)	> 2 µM (inactive)	> 2 µM (inactive)	> 2 µM (inactive)
